Tests used:
[1] = molecular target: T1, human dopamine D3 receptors (Homo sapiens, UniProt P35462); test: Dopamine D3 receptor binding, displacement of [125I]-iodosulpiride; settings: membranes from HEK-293 cells stably expressing human D3 receptor; 0.1 nM [125I]-iodosulpiride; 25° C., 60 minutes
T1 construct: expressed in transfected cells; host or cells: HEK-293 (membranes)
Protocol: (§1) The substance to be tested was dissolved either in methanol/Chremophor® (BASF-AG) or in dimethyl sulfoxide and then diluted with water to the desired concentration.
(§2) Triplicate mixtures were carried out.
The incubation buffer contained 50 mM Tris, 120 mM NaCl, 5 mM KCl, 2 mM CaCl2, 2 mM MgCl2 and 0.1% bovine serum albumin, 10 μM quinolone, 0.1% ascorbic acid (prepared fresh each day). The buffer was adjusted to pH 7.4 with HCl.
(§3) After incubation at 25° C. for 60 minutes, the mixtures were filtered under vacuum through Whatman GF/B glass fiber filters using a cell harvester. The filters were transferred by a filter transfer system into scintillation vials. After addition of 4 ml of Ultima Gold® (Packard), the samples were shaken for one hour and then the radioactivity was counted in a beta counter (Packard, Tricarb 2000 or 2200CA). The cp values were converted into dpm by means of a standard quench series with the aid of the instrument's own program.
(§4) Evaluation of the inhibition plots took place by iterative nonlinear regression analysis using the Statistical Analysis System (SAS) similar to the “LIGAND” program described by Munson and Rodbard.

[2] = molecular target: T2, human dopamine D2L receptors (long isoform) (Homo sapiens, UniProt P14416); test: Dopamine D2L receptor binding, displacement of [125I]-iodospiperone; settings: Ki(D2L)/Ki(D3); membranes from HEK-293 cells with human D2L and D3 receptors
T2 construct: expressed in transfected cells; host or cells: HEK-293 (membranes)
Protocol: as §1, §2
The incubation buffer contained 50 mM Tris, 120 mM NaCl, 5 mM KCl, 2 mM CaCl2, 2 mM MgCl2 and 0.1% bovine serum albumin. The buffer was adjusted to pH 7.4 with HCl.
as §3, §4

T1 sequence (P35462 whole entry): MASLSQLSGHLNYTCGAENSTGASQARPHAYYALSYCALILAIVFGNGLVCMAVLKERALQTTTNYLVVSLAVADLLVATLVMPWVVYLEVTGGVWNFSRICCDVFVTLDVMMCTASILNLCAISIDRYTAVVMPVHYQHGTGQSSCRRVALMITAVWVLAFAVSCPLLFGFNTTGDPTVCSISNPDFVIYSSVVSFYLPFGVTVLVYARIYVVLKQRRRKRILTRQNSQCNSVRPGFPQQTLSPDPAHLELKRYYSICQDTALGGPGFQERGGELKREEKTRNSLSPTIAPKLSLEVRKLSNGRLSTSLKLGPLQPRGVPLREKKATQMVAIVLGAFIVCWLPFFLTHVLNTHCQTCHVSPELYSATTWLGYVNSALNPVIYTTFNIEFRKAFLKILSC
T2 sequence (P14416 whole entry, canonical isoform): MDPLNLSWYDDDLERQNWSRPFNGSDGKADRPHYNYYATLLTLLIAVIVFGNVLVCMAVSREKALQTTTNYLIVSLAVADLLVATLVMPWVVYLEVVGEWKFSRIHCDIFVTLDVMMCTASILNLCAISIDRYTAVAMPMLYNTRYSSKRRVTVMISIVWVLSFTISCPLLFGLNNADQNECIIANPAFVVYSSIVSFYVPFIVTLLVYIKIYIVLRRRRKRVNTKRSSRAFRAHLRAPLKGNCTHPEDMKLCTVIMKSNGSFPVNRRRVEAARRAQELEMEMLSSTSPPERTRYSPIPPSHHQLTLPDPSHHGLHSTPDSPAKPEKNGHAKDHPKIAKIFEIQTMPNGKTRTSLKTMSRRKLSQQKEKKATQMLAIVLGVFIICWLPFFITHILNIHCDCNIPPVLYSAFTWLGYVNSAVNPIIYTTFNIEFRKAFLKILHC

Row | SMILES | Ki [1] | Selectivity vs. D2L [2]
1 | CCCc1cc(N2CCN(CCCCn3ccc(C)cc3=O)CC2)nc(C(C)(C)C)n1.Cl [Example 3, 4-(2-tert-Butyl-6-propylpyrimidin-4-yl)-1-[4-(4-methyl-2-oxopyridin-1(2H)-yl)butyl]piperazin-1-ium chloride] | 0.84 nM | 137
2 | CCCc1cc(N2CCN(CCCCn3cccc(OC)c3=O)CC2)nc(C(C)(C)C)n1 [Example 5, 1-{4-[4-(2-tert-Butyl-6-propylpyrimidin-4-yl)piperazin-1-yl]butyl}-3-methoxy-1H-pyridin-2-one] | 1.2 nM | 51

The next lines start with the values.

Row | Ki [1] | Selectivity vs. D2L [2] | SMILES
3 | 2.2 nM | 74 | COc1cccn(CCCCN2CCN(c3cc(C(F)(F)F)nc(C(C)(C)C)n3)CC2)c1=O [Example 6, 1-{4-[4-(2-tert-Butyl-6-trifluoromethylpyrimidin-4-yl)piperazin-1-yl]butyl}-3-methoxy-1H-pyridin-2-one]
4 | 1.25 nM | 129 | CCCc1cc(N2CCN(CCCCn3cccc(C)c3=O)CC2)nc(C(C)(C)C)n1 [Example 7, 1-{4-[4-(2-tert-Butyl-6-propylpyrimidin-4-yl)piperazin-1-yl]butyl}-3-methyl-1H-pyridin-2-one]
5 | 2.31 nM | 74 | Cc1cccn(CCCCN2CCN(c3cc(C(F)(F)F)nc(C(C)(C)C)n3)CC2)c1=O [Example 11, 1-{4-[4-(2-tert-Butyl-6-trifluoromethylpyrimidin-4-yl)piperazin-1-yl]butyl}-3-methyl-1H-pyridin-2-one]
